Measurements as given in US20070208026A1, “N-Containing Heteroaromatic Compounds As Modulators Of Ppars And Methods Of Treating Metabolic Disorders” (priority 2003, published 2007).

How the values were obtained:
Assay in all cases: cell-based human PPAR-GAL4 chimera luciferase reporter assay in CV-1 cells
hPPAR δ = target: T1, hPPAR δ (Homo sapiens, UniProt Q03181); details: PPAR LBD-GAL4 chimera, 24 hours treatment
T1 construct: expressed in transfected cells; host or cells: CV-1 cells
T1 sequence (Q03181 211-439 limits assumed): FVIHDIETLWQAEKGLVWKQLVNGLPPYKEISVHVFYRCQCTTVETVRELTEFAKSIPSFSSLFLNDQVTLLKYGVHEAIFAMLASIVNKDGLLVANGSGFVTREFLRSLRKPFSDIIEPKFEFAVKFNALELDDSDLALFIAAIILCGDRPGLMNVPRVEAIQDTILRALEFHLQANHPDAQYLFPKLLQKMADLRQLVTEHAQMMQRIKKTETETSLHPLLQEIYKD
Description: (§1) The compounds were evaluated in a cell-based assay to determine their human PPAR activity (See Tables 2 and 3). The plasmids for human PPAR-GAL4 chimeras were prepared by fusing amplified cDNAs encoding the LBDs of PPARs to the C-terminal end of the yeast GAL4 DNA binding domain. CV-1 cells were grown and transiently tranfected with PerFectin (GTS, San Diego, Calif.) according to the manufacturer's protocol along with a luciferase reporter. Eight hours after transfection, 50 μl of cells were replated into 384 well plates ([…]). Sixteen hours after replating, cells were treated with either compounds or 1% DMSO for 24 hours. Luciferase activity was then assayed with Britelite (Perkin Elmer) following the manufacturer's protocol and measured with either the Perkin Elmer Viewlux or Molecular Devices Acquest.

hPPAR γ = target: T2, hPPAR γ (Homo sapiens, UniProt P37231); details: PPAR LBD-GAL4 chimera, 24 hours treatment
T2 construct: expressed in transfected cells; host or cells: CV-1 cells
T2 sequence (P37231 238-503 limits assumed): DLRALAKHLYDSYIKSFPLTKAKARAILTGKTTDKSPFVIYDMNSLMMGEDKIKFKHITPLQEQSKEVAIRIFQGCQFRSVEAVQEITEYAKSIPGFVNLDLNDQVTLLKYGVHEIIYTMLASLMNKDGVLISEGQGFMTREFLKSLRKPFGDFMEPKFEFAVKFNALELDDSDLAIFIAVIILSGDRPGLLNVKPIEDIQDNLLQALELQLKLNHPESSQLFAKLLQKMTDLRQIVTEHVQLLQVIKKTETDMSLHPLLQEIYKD
Description: as §1

hPPAR α = target: T3, hPPAR α (Homo sapiens, UniProt Q07869); details: PPAR LBD-GAL4 chimera, 24 hours treatment; for EC50: read-out: hPPAP α (EC50)
T3 construct: expressed in transfected cells; host or cells: CV-1 cells
T3 sequence (Q07869 239-466 limits assumed): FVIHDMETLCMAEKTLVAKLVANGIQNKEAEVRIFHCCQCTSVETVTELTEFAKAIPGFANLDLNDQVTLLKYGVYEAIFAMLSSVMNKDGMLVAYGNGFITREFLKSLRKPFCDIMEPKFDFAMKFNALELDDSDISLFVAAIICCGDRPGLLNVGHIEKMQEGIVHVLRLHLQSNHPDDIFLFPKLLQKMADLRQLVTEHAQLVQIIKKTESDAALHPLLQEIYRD
Description: as §1

SMILES | EC50 (hPPAR δ) [µM] | EC50 (hPPAR γ) [µM] | EC50 (hPPAR α) [µM] | hPPAR δ (EC50) (hPPAR δ) | hPPAP α (EC50) (hPPAR α)
CCc1cnc(N(CCCOc2cccc3ccc(C(=O)O)nc23)Cc2ccc(C(F)(F)F)cc2C(F)(F)F)nc1 | > 100 | 1 to 100 | > 100 | – | –
CCc1cnc(N(CCCOc2ccc3[nH]cc(CC(=O)O)c3c2)Cc2ccc(C(F)(F)F)cc2C(F)(F)F)nc1 | 1 to 100 | < 1 | > 100 | – | –
CCc1cnc(N(CCCOc2ccc3c(c2)c(CC(=O)O)cn3C)Cc2ccc(C(F)(F)F)cc2C(F)(F)F)nc1 | – | < 1 | 1 to 100 | B/C | –
CCCCN(CCCOc1ccc2[nH]cc(CC(=O)O)c2c1)c1ncc(CC)cn1 | > 100 | 1 to 100 | > 100 | – | –
CCCCN(CCCOc1ccc2[nH]cc(CC(=O)O)c2c1)c1ccccn1 | > 100 | 1 to 100 | > 100 | – | –
CCCCN(CCCOc1ccc2[nH]cc(CC(=O)O)c2c1)c1nc2ccccc2s1 | 1 to 100 | 1 to 100 | > 100 | – | –
CCCCN(CCCOc1ccc2[nH]cc(CC(=O)O)c2c1)c1nc2ccccc2o1 | 1 to 100 | 1 to 100 | > 100 | – | –
O=C(O)Cc1c[nH]c2ccc(OCCCN(Cc3ccc(C(F)(F)F)cc3C(F)(F)F)c3nc4ccccc4o3)cc12 | < 1 | < 1 | > 100 | – | –
O=C(O)Cc1c[nH]c2ccc(OCCCN(Cc3ccc(C(F)(F)F)cc3C(F)(F)F)c3ccccn3)cc12 | 1 to 100 | < 1 | > 100 | – | –
CCCCN(CCCOc1nc2ccccc2nc1C(=O)O)c1ncc(CC)cn1 | 1 to 100 | 1 to 100 | > 100 | – | –
CCCCN(CCCOc1nc2ccccc2nc1C(=O)O)c1ccccn1 | > 100 | 1 to 100 | > 100 | – | –
CCCCN(CCCOc1nc2ccccc2nc1C(=O)O)c1nc2ccccc2o1 | > 100 | 1 to 100 | > 100 | – | –
CCc1cnc(N(CCCOc2cncc(C(=O)O)c2)Cc2ccc(C(F)(F)F)cc2C(F)(F)F)nc1 | 1 to 100 | < 1 | – | – | B/C
CCc1cnc(N(CCCOc2ncc(C(=O)O)cc2Cl)Cc2ccc(C(F)(F)F)cc2C(F)(F)F)nc1 | > 100 | < 1 | > 100 | – | –
CCCCN(CCCOc1cncc(C(=O)O)c1)c1ncc(CC)cn1 | > 100 | < 1 | > 100 | – | –
CCCCN(CCCOc1cncc(C(=O)O)c1)c1ccccn1 | > 100 | 1 to 100 | > 100 | – | –
CCCCN(CCCOc1cncc(C(=O)O)c1)c1nc2ccccc2s1 | > 100 | < 1 | > 100 | – | –
CCCCN(CCCOc1cncc(C(=O)O)c1)c1nc2ccccc2o1 | > 100 | 1 to 100 | > 100 | – | –
O=C(O)c1cncc(OCCCN(Cc2ccc(C(F)(F)F)cc2C(F)(F)F)c2nc3ccccc3o2)c1 | > 100 | 1 to 100 | > 100 | – | –
O=C(O)c1cncc(OCCCN(Cc2ccc(C(F)(F)F)cc2C(F)(F)F)c2ccccn2)c1 | 1 to 100 | < 1 | 1 to 100 | – | –
CCc1cnc(N(CCCOc2cccc(C(=O)O)n2)Cc2ccc(C(F)(F)F)cc2C(F)(F)F)nc1 | > 100 | < 1 | – | – | A/B
CCCCN(CCCOc1cccc(C(=O)O)n1)c1ncc(CC)cn1 | 1 to 100 | < 1 | 1 to 100 | – | –
CCCCN(CCCOc1cccc(C(=O)O)n1)c1ccccn1 | > 100 | 1 to 100 | > 100 | – | –
CCCCN(CCCOc1cccc(C(=O)O)n1)c1nc2ccccc2s1 | > 100 | 1 to 100 | > 100 | – | –
CCCCN(CCCOc1cccc(C(=O)O)n1)c1nc2ccccc2o1 | > 100 | < 1 | 1 to 100 | – | –

Continued, values first:

EC50 (hPPAR δ) [µM] | EC50 (hPPAR γ) [µM] | EC50 (hPPAR α) [µM] | hPPAR δ (EC50) (hPPAR δ) | hPPAP α (EC50) (hPPAR α) | SMILES
> 100 | < 1 | > 100 | – | – | O=C(O)Cc1c[nH]c2ccc(OCCCN(Cc3ccc(C(F)(F)F)cc3C(F)(F)F)c3nc4ccccc4s3)cc12
> 100 | < 1 | > 100 | – | – | CCc1cnc(N(CCCOc2nc3ccccc3nc2C(=O)O)Cc2ccc(C(F)(F)F)cc2C(F)(F)F)nc1
> 100 | 1 to 100 | > 100 | – | – | CCCCN(CCCOc1nc2ccccc2nc1C(=O)O)c1nc2ccccc2s1
> 100 | > 100 | > 100 | – | – | O=C(O)c1nc2ccccc2nc1OCCCN(Cc1ccc(C(F)(F)F)cc1)c1nc2ccccc2s1
> 100 | < 1 | > 100 | – | – | O=C(O)c1nc2ccccc2nc1OCCCN(Cc1ccc(C(F)(F)F)cc1C(F)(F)F)c1nc2ccccc2o1
> 100 | < 1 | > 100 | – | – | O=C(O)c1nc2ccccc2nc1OCCCN(Cc1ccc(C(F)(F)F)cc1C(F)(F)F)c1ccccn1
> 100 | < 1 | > 100 | – | – | O=C(O)c1nc2ccccc2nc1OCCCN(Cc1ccc(C(F)(F)F)cc1C(F)(F)F)c1nc2ccccc2s1
> 100 | < 1 | 1 to 100 | – | – | O=C(O)c1cncc(OCCCN(Cc2ccc(C(F)(F)F)cc2)c2nc3ccccc3s2)c1
> 100 | 1 to 100 | > 100 | – | – | O=C(O)c1cncc(OCCCN(Cc2ccc(C(F)(F)F)cc2C(F)(F)F)c2nc3ccccc3s2)c1
> 100 | < 1 | > 100 | – | – | O=C(O)c1cccc(OCCCN(Cc2ccc(C(F)(F)F)cc2)c2nc3ccccc3s2)n1
> 100 | > 100 | < 1 | – | – | O=C(O)c1cccc(OCCCN(Cc2ccc(C(F)(F)F)cc2C(F)(F)F)c2nc3ccccc3o2)n1
> 100 | < 1 | 1 to 100 | – | – | O=C(O)c1cccc(OCCCN(Cc2ccc(C(F)(F)F)cc2C(F)(F)F)c2ccccn2)n1
> 100 | < 1 | < 1 | – | – | O=C(O)c1cccc(OCCCN(Cc2ccc(C(F)(F)F)cc2C(F)(F)F)c2nc3ccccc3s2)n1
